Assay results taken from patent publication US8921376B2, “Pyrrolopyridines useful as inhibitors of protein kinase” (Vertex Pharmaceuticals Incorporated, priority 2005, dated 2014).

Legend:
Assay type in all cases: biochemical
JAK3 = target: T1, JAK3 (Homo sapiens, UniProt P52333); assay: JAK3 inhibition assay (33P incorporation into poly(Glu)4Tyr); settings: enzyme inhibition, Table 5
T1 sequence (P52333 1-1124): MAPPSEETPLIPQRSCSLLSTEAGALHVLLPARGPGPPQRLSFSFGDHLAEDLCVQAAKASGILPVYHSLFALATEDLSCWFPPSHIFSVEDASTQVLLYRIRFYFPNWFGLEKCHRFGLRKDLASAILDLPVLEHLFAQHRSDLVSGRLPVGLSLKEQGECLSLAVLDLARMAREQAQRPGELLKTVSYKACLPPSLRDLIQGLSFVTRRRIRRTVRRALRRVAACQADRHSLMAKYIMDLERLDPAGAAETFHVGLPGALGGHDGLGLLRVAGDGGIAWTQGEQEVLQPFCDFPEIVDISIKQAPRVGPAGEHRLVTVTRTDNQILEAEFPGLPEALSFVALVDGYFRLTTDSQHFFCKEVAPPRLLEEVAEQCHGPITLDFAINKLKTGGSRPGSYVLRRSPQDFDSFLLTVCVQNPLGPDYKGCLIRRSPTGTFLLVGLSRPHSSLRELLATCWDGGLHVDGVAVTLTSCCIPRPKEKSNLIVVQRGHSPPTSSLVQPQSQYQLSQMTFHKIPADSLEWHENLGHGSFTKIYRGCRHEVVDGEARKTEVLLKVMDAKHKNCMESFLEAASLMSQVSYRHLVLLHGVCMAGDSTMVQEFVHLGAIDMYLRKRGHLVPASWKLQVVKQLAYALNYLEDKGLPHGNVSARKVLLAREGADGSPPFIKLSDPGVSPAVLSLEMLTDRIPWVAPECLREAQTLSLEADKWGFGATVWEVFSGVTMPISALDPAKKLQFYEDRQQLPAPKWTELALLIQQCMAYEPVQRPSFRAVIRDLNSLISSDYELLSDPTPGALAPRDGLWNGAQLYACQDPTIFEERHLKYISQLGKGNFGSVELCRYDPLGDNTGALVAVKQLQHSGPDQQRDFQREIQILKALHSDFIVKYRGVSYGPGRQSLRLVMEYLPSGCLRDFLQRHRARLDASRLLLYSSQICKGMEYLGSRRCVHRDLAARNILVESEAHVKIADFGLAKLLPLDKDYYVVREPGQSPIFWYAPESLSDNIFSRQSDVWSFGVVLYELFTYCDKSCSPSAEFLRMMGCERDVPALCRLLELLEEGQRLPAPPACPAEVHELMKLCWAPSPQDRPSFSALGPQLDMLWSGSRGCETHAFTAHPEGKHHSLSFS
Experimental: (§1) Compounds were screened for their ability to inhibit JAK using the assay shown below. Reactions were carried out in a kinase buffer containing 100 mM HEPES (pH 7.4), 1 mM DTT, 10 mM MgCl2, 25 mM NaCl, and 0.01% BSA.
(§2) Substrate concentrations in the assay were 5 μM ATP (200 μCi/μmole ATP) and 1 μM poly(Glu)4Tyr. Reactions were carried out at 25° C. and 1 nM JAK3.
(§3) To each well of a 96 well polycarbonate plate was added 1.5 μl of a candidate JAK3 inhibitor along with 50/1 of kinase buffer containing 2 μM poly(Glu)4Tyr and 10 μM ATP. This was then mixed and 50 μl of kinase buffer containing 2 nM JAK3 enzyme was added to start the reaction. After 20 minutes at room temperature (25 C), the reaction was stopped with 50 μl of 20% trichloroacetic acid (TCA) that also contained 0.4 mM ATP. The entire contents of each well were then transferred to a 96 well glass fiber filter plate using a TomTek Cell Harvester. After washing, 60 μl of scintillation fluid was added and ^33P incorporation detected on a Perkin Elmer TopCount.

ROCK I = ROCK I (Homo sapiens, UniProt Q13464); assay: ROCK-I inhibition assay (radioactive enzyme assay, MBP substrate); settings: enzyme inhibition, Ki(app), Table 5
Experimental: Compounds were screened for their ability to inhibit ROCK using a standard radioactive enzyme assay. Assays were carried out in a solution containing 100 mM HEPES (pH 7.5), 10 mM MgCl2, 25 mM NaCl, 2 mM DTT, and 1.5% DMSO. Final substrate concentrations in the assay were 13 μM [γ-^33P] ATP (25 mCi ^33P ATP/mmol ATP, Perkin Elmer, Cambridge, Mass./Sigma Chemicals, St Louis, Mo.) and 27 μM Myelin Basic Protein (MBP). Final enzyme concentration in the assay was 5 nM ROCK. Assays were carried out at room temperature. 1.5 μl of DMSO stock containing serial dilutions of the compound of the present invention (concentrations ranging from 10 μM to 2.6 nM) was placed in a 96 well plate. 50 μl of Solution 1 (100 mM HEPES (pH 7.5), 10 mM MgCl2, […]) was added to the plate. The reaction was initiated by addition of 50 μl of Solution 2 (100 mM HEPES (pH 7.5), 10 mM MgCl2, 4 mM DTT, […] and 10 nM ROCK). After 2 hours the reaction was quenched with 50 μL of 30% trichloroacetic acid (TCA, Fisher) containing 9 mM ATP. Transfer of 140 μL of the quenched reaction to a glass fiber filter plate (Corning, Cat. No. 3511) was followed by washing 3 times with 5% TCA. 50 μl of Optima Gold scintillation fluid (Perkin Elmer) was added and the plates were counted on a Top Count (Perkin Elmer). After removing mean background values for all of the data points the data was fit using Prism software to obtain a Ki(app).

JAK2 = JAK2 (Homo sapiens, UniProt O60674); assay: JAK2 inhibition assay (as Example 3 with JAK-2 enzyme); settings: enzyme inhibition, Table 5
Experimental: as §1, §2, §3
The assays were as described above in Example 3 except that JAK-2 enzyme was used, the final poly(Glu)4Tyr concentration was 15 μM, and final ATP concentration was 12 μM.

ROCK I, sequence (Q13464 whole entry): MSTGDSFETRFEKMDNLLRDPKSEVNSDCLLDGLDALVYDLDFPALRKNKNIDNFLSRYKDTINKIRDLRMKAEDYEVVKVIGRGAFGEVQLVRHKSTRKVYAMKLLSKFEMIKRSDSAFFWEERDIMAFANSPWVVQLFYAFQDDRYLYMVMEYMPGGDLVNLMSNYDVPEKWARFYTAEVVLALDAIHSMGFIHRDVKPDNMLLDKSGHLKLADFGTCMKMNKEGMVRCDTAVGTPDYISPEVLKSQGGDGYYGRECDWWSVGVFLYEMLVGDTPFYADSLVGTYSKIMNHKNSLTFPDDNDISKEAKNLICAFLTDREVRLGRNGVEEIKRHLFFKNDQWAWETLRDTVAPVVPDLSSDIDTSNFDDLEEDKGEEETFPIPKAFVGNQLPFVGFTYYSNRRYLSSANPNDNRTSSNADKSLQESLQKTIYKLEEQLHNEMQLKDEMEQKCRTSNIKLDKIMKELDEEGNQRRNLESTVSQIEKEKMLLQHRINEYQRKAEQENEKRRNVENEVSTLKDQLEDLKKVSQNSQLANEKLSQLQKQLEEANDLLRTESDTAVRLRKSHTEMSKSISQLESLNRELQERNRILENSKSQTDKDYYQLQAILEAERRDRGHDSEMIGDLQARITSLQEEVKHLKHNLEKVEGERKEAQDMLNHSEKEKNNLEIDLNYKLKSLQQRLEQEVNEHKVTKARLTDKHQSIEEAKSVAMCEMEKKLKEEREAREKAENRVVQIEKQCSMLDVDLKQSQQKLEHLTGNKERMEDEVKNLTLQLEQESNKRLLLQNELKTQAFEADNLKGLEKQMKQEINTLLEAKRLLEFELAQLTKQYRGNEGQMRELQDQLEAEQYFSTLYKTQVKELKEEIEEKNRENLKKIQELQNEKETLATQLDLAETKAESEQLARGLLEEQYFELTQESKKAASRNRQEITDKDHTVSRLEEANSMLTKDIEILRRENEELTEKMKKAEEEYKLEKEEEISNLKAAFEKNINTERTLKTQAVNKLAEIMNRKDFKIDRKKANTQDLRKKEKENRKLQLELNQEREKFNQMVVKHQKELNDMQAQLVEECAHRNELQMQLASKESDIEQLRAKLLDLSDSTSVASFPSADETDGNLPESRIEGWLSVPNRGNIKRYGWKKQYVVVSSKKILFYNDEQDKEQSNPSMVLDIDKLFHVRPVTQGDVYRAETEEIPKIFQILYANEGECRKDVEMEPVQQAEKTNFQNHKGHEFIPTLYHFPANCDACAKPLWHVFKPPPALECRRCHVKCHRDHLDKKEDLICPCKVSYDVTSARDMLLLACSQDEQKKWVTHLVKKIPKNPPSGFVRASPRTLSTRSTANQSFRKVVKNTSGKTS
JAK2, sequence (O60674 whole entry): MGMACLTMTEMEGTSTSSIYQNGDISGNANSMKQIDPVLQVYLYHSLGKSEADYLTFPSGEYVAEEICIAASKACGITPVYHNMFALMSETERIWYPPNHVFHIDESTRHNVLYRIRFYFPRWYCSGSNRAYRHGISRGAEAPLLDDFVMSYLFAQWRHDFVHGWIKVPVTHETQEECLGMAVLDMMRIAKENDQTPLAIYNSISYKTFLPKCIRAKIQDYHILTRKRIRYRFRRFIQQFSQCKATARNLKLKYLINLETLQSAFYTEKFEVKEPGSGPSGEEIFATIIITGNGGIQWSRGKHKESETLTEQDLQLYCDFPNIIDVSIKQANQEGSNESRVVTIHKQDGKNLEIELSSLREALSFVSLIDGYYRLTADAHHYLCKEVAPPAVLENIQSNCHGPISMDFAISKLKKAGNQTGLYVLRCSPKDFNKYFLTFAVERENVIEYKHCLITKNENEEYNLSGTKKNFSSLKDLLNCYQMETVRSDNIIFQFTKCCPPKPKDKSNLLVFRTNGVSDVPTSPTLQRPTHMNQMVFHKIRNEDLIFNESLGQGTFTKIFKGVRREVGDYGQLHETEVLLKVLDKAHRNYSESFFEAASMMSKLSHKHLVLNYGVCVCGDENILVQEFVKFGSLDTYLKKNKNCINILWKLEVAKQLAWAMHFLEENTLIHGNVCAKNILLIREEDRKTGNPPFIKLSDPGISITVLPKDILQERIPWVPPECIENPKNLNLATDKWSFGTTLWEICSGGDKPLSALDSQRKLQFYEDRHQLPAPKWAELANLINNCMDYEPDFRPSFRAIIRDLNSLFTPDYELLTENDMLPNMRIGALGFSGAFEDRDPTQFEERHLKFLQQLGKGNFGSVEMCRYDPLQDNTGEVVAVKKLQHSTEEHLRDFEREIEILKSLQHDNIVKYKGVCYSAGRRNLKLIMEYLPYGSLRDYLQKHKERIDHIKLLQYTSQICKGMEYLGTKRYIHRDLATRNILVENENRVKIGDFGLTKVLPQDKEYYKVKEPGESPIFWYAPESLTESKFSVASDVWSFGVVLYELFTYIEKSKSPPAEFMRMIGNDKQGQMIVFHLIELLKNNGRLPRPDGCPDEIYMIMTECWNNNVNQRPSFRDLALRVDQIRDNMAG

Structure (SMILES) | Ki (JAK3) | Ki (ROCK I) | Ki (JAK2)
CCC(CO)NC(=O)c1ccc(-c2ccnc3[nH]ccc23)s1 (racemic) [compound 14] | < 500 nM | < 500 nM | –
COc1ccc(-c2ccnc3[nH]ccc23)cc1OC [compound 1, 4-(3,4-dimethoxyphenyl)-1H-pyrrolo[2,3-b]pyridine] | 500 to 5000 nM | – | –
O=C(N[C@H](CO)c1cccc(Cl)c1)c1cc(-c2ccnc3[nH]ccc23)c[nH]1 [compound 2] | 500 to 5000 nM | – | –
CS(=O)(=O)Nc1cccc(CC(=O)Nc2cc(-c3ccnc4[nH]ccc34)cs2)c1 [compound 3] | < 500 nM | < 500 nM | –
O=C(c1ccc(-c2ccnc3[nH]ccc23)s1)N1CCNCC1 [compound 4] | < 500 nM | < 500 nM | –
O=C(NCC1CCCO1)c1ccc(-c2ccnc3[nH]ccc23)s1 (stereo not drawn) [compound 6] | < 500 nM | < 500 nM | –
CCCNC(=O)c1ccc(-c2ccnc3[nH]ccc23)s1 [compound 7] | < 500 nM | < 500 nM | –
O=C(NCCO)c1ccc(-c2ccnc3[nH]ccc23)s1 [compound 8] | < 500 nM | < 500 nM | –
COCCNC(=O)c1ccc(-c2ccnc3[nH]ccc23)s1 [compound 9] | < 500 nM | < 500 nM | –
O=C(c1ccc(-c2ccnc3[nH]ccc23)s1)N1CCC[C@H]1CO [compound 10] | < 500 nM | < 500 nM | –
O=C(c1ccc(-c2ccnc3[nH]ccc23)s1)N1CCC[C@@H]1CO [compound 11] | < 500 nM | < 500 nM | –
COC[C@@H]1CCCN1C(=O)c1ccc(-c2ccnc3[nH]ccc23)s1 [compound 12] | 500 to 5000 nM | 500 to 5000 nM | –
COC[C@H]1CCCN1C(=O)c1ccc(-c2ccnc3[nH]ccc23)s1 [compound 13] | < 500 nM | < 500 nM | –
C[C@@H](CO)NC(=O)c1ccc(-c2ccnc3[nH]ccc23)s1 [compound 15] | < 500 nM | < 500 nM | –
CC(C)C(CO)NC(=O)c1ccc(-c2ccnc3[nH]ccc23)s1 (stereo not drawn) [compound 16] | < 500 nM | < 500 nM | –
CCC(CC)NC(=O)c1ccc(-c2ccnc3[nH]ccc23)s1 [compound 17] | < 500 nM | < 500 nM | –
CC(=O)N1CCCN(c2cccc(-c3ccnc4[nH]ccc34)n2)CC1 [compound 18] | 500 to 5000 nM | 500 to 5000 nM | < 500 nM
N#CCC(=O)N1CCCN(c2cccc(-c3ccnc4[nH]ccc34)n2)CC1 [compound 19] | 500 to 5000 nM | 500 to 5000 nM | < 500 nM
CC(C)CNc1cccc(-c2ccnc3[nH]ccc23)n1 [compound 20] | 500 to 5000 nM | 500 to 5000 nM | 500 to 5000 nM
CC(=O)N(Cc1ccccc1)c1cc(-c2ccnc3[nH]ccc23)cs1 [compound 21] | < 500 nM | 500 to 5000 nM | –
CC(=O)N1[C@H](C)CN(c2cccc(-c3ccnc4[nH]ccc34)n2)C[C@@H]1C [compound 22] | < 500 nM | 500 to 5000 nM | < 500 nM
COCC(=O)Nc1cc(-c2ccnc3[nH]ccc23)cs1 [compound 23] | 500 to 5000 nM | < 500 nM | –

Further lines, results first:

Ki (JAK3) | Ki (ROCK I) | Ki (JAK2) | Structure (SMILES)
500 to 5000 nM | – | 500 to 5000 nM | c1cc(NC2CCCC2)nc(-c2ccnc3[nH]ccc23)c1 [compound 24, N-Cyclopentyl-6-(1H-pyrrolo[2,3-b]pyridin-4-yl)pyridin-2-amine]
500 to 5000 nM | < 500 nM | < 500 nM | CC1CCCN(c2cccc(-c3ccnc4[nH]ccc34)n2)C1 (stereo not drawn) [compound 25, 4-(6-(3-Methylpiperidin-1-yl)pyridin-2-yl)-1H-pyrrolo[2,3-b]pyridine]
500 to 5000 nM | 500 to 5000 nM | 500 to 5000 nM | CC(=O)N1CCN(c2cccc(-c3ccnc4[nH]ccc34)n2)CC1 [compound 26, 1-(4-(6-(1H-pyrrolo[2,3-b]pyridin-4-yl)pyridin-2-yl)piperazin-1-yl)ethanone]
< 500 nM | < 500 nM | < 500 nM | C1=C(c2ccnc3[nH]ccc23)CCC1 [compound 27, 4-Cyclopentenyl-1H-pyrrolo[2,3b]pyridine]
< 500 nM | 500 to 5000 nM | < 500 nM | Clc1cnc2[nH]ccc2c1C1=CCCC1 [compound 28, 5-Chloro-4-cyclopentenyl-1H-pyrrolo[2,3b]pyridine]
< 500 nM | 500 to 5000 nM | < 500 nM | Clc1cnc2[nH]ccc2c1C1=CCCCC1 [compound 29, 5-Chloro-4-cyclohexenyl-1H-pyrrolo[2,3b]pyridine]
< 500 nM | < 500 nM | < 500 nM | C1=C(c2ccnc3[nH]ccc23)CCCC1 [compound 30, 4-Cyclohexenyl-1H-pyrrolo[2,3b]pyridine]
< 500 nM | < 500 nM | < 500 nM | CN(C)c1cccc(-c2ccnc3[nH]ccc23)c1 [compound 31, Dimethyl-[3-(1H-pyrrolo[2,3-b]pyridin-4-yl)-phenyl]-amine]
> 5000 nM | 500 to 5000 nM | 500 to 5000 nM | Clc1cnc2[nH]ccc2c1-c1cccc(NC2CCCC2)n1 [compound 32, 6-(5-Chloro-1H-pyrrolo[2,3-b]pyridin-4-yl)-N-cyclopentylpyrdin-2-anine]
500 to 5000 nM | 500 to 5000 nM | 500 to 5000 nM | Clc1ccccc1CNc1cccc(-c2ccnc3[nH]ccc23)n1 [compound 33, N-(2-Chlorobenzyl)-6-(1H-pyrrolo[2,3-b]pyridin-4-yl)pyridin-2-amine]
500 to 5000 nM | 500 to 5000 nM | 500 to 5000 nM | Clc1ccccc1CCNc1cccc(-c2ccnc3[nH]ccc23)n1 [compound 34, N-(2-Chlorophenethyl)-6-(1H-pyrrolo[2,3-b]pyridin-4-yl)pyridin-2-amine]
500 to 5000 nM | < 500 nM | 500 to 5000 nM | CN(CCO)c1cccc(-c2ccnc3[nH]ccc23)n1 [compound 35, 2-(N-(6-(1H-Pyrrolo[2,3-b]pyridin-4-yl)pyridin-2-yl)-N-methylamino)ethanol]
500 to 5000 nM | 500 to 5000 nM | 500 to 5000 nM | c1cc(NCC2CCCO2)nc(-c2ccnc3[nH]ccc23)c1 (stereo not drawn) [compound 36, N-((tetrahydrofuran-2-yl)methyl)-6-(1H-pyrrolo[2,3-b]pyridin-4-yl)pyridin-2-amine]
